{"source": "paper PMC3679074", "about": "“Ligand Binding and Signaling of Dendritic Cell Immunoreceptor (DCIR) Is Modulated by the Glycosylation of the Carbohydrate Recognition Domain” (PLoS ONE, 2013)", "key": {"DCIR-Fc [1]": {"biological_target": "T1, DCIR-Fc (Homo sapiens, UniProt Q9UMR7, N185Q)", "T1 construct": "gene CLEC4A; extracellular domain fused at C terminus to human IgG1 Fc (tag); produced in CHO or CHO Lec8 cells, protein A purified; 'residues 208-689' [sic]", "T1 sequence (Q9UMR7 70-230 N185Q)": "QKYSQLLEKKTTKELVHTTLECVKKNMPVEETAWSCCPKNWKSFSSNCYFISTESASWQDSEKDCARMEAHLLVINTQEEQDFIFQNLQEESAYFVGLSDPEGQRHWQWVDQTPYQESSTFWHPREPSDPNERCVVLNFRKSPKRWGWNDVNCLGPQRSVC", "test": "ELISA, soluble Fc protein on coated neoglycoconjugate", "format": "binding", "details": "50 µg/ml Fc protein, room temperature; multivalent PAA conjugate; mutant lacks CRD N-glycan"}, "DCIR-Fc [2]": {"biological_target": "T2, DCIR-Fc (Homo sapiens, UniProt Q9UMR7)", "T2 construct": "gene CLEC4A; extracellular domain fused at C terminus to human IgG1 Fc (tag); produced in CHO or CHO Lec8 cells, protein A purified; 'residues 208-689' [sic]", "T2 sequence (Q9UMR7 70-230)": "T1 sequence (Q9UMR7 70-230 N185Q) with Q116N", "test": "ELISA, biotinylated neoglycoconjugate on immobilized Fc protein", "format": "binding"}}, "note": "Substitutions are numbered along the chain they refer to."}
{"smiles": "CC(=O)N[C@H]1C(O)O[C@H](CO)[C@@H](O[C@@H]2O[C@@H](C)[C@@H](O)[C@@H](O)[C@@H]2O)[C@@H]1O[C@@H]1O[C@H](CO)[C@H](O)[C@H](O)[C@H]1O[C@@H]1O[C@@H](C)[C@@H](O)[C@@H](O)[C@@H]1O", "note": "(stereo partly drawn) [Lewis^b]", "values": [{"measurement": "ELISA, soluble Fc protein on coated neoglycoconjugate", "setting": "DCIR-Fc [1]", "value": "strongly interacted with immobilized Lewis^b and Man3"}, {"measurement": "ELISA, biotinylated neoglycoconjugate on immobilized Fc protein", "setting": "DCIR-Fc [2]; pH 7.4, Ca2+/Mg2+, room temperature, labelled compound (multivalent biotinylated PAA conjugate), EGTA-sensitive", "value": "We observed CLR-specific binding of Man3 and Lewis^b to immobilized DCIR-Fc"}]}
{"smiles": "CC(=O)N[C@H]1C(O)O[C@H](CO)[C@@H](O[C@@H]2O[C@@H](C)[C@@H](O)[C@@H](O)[C@@H]2O)[C@@H]1O[C@@H]1O[C@H](CO)[C@H](O)[C@H](OS(=O)(=O)O)[C@H]1O", "note": "(stereo partly drawn) [sulfo-Lewis^a]", "values": [{"measurement": "ELISA, biotinylated neoglycoconjugate on immobilized Fc protein", "setting": "DCIR-Fc [2]; labelled compound (multivalent biotinylated PAA conjugate, 5 µg/ml), EGTA control subtracted", "value": "immobilized glycosylated DCIR-Fc could interact with sulfo-Lewis^a"}]}
